US20110039762A1, “TARGETED ANTIMICROBIAL MOIETIES” (C3 JIAN, INC., priority 2009, published 2011)
“Also recorded” adds a separate entry of the source.

B1: PF-389: peptide having multiple activities (peptide)
chain 1: GLQFKEIAEEFHITTTALQQWHKDNGYPIYNKNNRK
chain 2: B1 chain 1
modifications: Peptide with targeting and/or antimicrobial activity

Experiments:
MRSA = assay: Kill or inhibit growth/proliferation; morphology, biofilm and growth disruption (Tables 5, 6); assay type: cell-based, Methicillin-resistant Staphylococcus aureus; set-up: key: A: Peptide aggregates; B: Less hyphal formation; Clumps; Diffuse clumps and small polyps; F: Diffuse growth; H: Thin; I: Growth inhibition; Microcolony formation; Rippled; Small polyps; Thick; W: Halo formation on top, microlonies on bottom; further: test concentration or dose not given here
C. jejuni = assay: as above; assay type: cell-based, Campylobacter jejuni; set-up: key: A: Peptide aggregates; B: Less hyphal formation; Clumps; Diffuse clumps and small polyps; F: Diffuse growth; H: Thin; I: Growth inhibition; Microcolony formation; Rippled; Small polyps; Thick; W: Halo formation on top, microlonies on bottom
S. epidermidis = assay: as above; assay type: cell-based, Staphylococcus epidermidis; set-up: key: A: Peptide aggregates; B: Less hyphal formation; Clumps; Diffuse clumps and small polyps; F: Diffuse growth; H: Thin; I: Growth inhibition; Microcolony formation; Rippled; Small polyps; Thick; W: Halo formation on top, microlonies on bottom
S. pneumoniae = assay: as above; assay type: cell-based, Streptococcus pneumoniae; set-up: key: A: Peptide aggregates; B: Less hyphal formation; Clumps; Diffuse clumps and small polyps; F: Diffuse growth; H: Thin; I: Growth inhibition; Microcolony formation; Rippled; Small polyps; Thick; W: Halo formation on top, microlonies on bottom; further: test concentration or dose not given here
E. coli = assay: as above; assay type: cell-based, Escherichia coli; set-up: key: A: Peptide aggregates; B: Less hyphal formation; Clumps; Diffuse clumps and small polyps; F: Diffuse growth; H: Thin; I: Growth inhibition; Microcolony formation; Rippled; Small polyps; Thick; W: Halo formation on top, microlonies on bottom; further: test concentration or dose not given here
E. faecalis = assay: as above; assay type: cell-based, Enterococcus faecalis; set-up: key: A: Peptide aggregates; B: Less hyphal formation; Clumps; Diffuse clumps and small polyps; F: Diffuse growth; H: Thin; I: Growth inhibition; Microcolony formation; Rippled; Small polyps; Thick; W: Halo formation on top, microlonies on bottom; further: test concentration or dose not given here
microorganisms = assay: Peptides having multiple activities (targeting/binding, antimicrobial, growth or phenotype altering)
Description: In certain embodiments, peptides described herein can have multiple activities. Thus for example, a peptide can have both binding/targeting activity and antimicrobial activity. Such peptides can be used, e.g., in a chimeric construct, for any or all of these properties. Thus, for example, a peptide designated “B” in Table 8 can be used as a targeting peptide. If it is also designated G or M it can also be used for antimicrobial activity.

[1] = tested on: microorganisms (e.g., bacteria, yeasts, fungi); assay: Targeting peptide binding to target microorganisms (Table 3); conditions: preferably 1x PBS; for Target(s): microorganism(s) the targeting peptide binds; for Target(s) (microorganisms bound by the targeting peptide): peptide binding in aqueous buffers varied by peptide solubility
[2] = peptide binding conducted in aqueous buffers varied by peptide solubility
Wherever Organism, effect is given: test concentration or dose not given here.

Molecule	Organism, effect (MRSA)	Organism, effect (C. jejuni)	Organism, effect (S. epidermidis)	Organism, effect (S. pneumoniae)	Organism, effect (E. coli)	Organism, effect (E. faecalis)	Activities (microorganisms)	Target(s) ([1]; binding in aqueous buffers depending on peptide solubility)	Target(s) [1, 2]	Target(s) (microorganisms bound by the targeting peptide) [1]
PF-363: peptide having multiple activities (chain 1 SMLSVTVMCLMHASVAANQAMEKKV; chain 2 SMLSVTVMCLMHASVAANQAMEKKV; Peptide with targeting and/or antimicrobial activity)	MRSA (H)	C. jejuni (D)	S. epidermidis (S)	S. pneumoniae (R)	E. coli (C)	E. faecalis (D)	G B	B. subtilis; also recorded: E. coli; also recorded: P. aeruginosa; also recorded: C. albicans; also recorded: S. pneumoniae; also recorded: E. faecalis	–	–
PF-390: peptide having multiple activities (chain 1 VVAYVITQVGAIRF; chain 2 VVAYVITQVGAIRF; Peptide with targeting and/or antimicrobial activity)	MRSA (D)	C. jejuni (D)	S. epidermidis (D)	S. pneumoniae (D)	E. coli (C)	E. faecalis (D)	G B	–	S. epidermidis and P. aeruginosa and C. albicans and MRSA	–
PF-418: peptide having multiple activities (FFLVHFYIRKRKGKVSIFLNYF; Peptide with targeting and/or antimicrobial activity)	MRSA (D)	C. jejuni (D)	S. epidermidis (M)	S. pneumoniae (D)	E. coli (C)	E. faecalis (D)	G B	–	–	–
PF-469: peptide having multiple activities (chain 1 YKVNYNNIDNHFNTLRH; chain 2 YKVNYNNIDNHFNTLRH; Peptide with targeting and/or antimicrobial activity)	MRSA (D)	C. jejuni (D)	S. epidermidis (D)	S. pneumoniae (D)	E. coli (C)	E. faecalis (D)	G B	–	–	–
PF-576: peptide having multiple activities (chain 1 AYSGELPEPLVRKMSKEQVRSVMGK; chain 2 AYSGELPEPLVRKMSKEQVRSVMGK; Peptide with targeting and/or antimicrobial activity)	MRSA (R)	C. jejuni (C)	S. epidermidis (A)	S. pneumoniae (C)	E. coli (A)	–	G B	–	M. luteus; also recorded: P. mirabilis; also recorded: E. coli; also recorded: P. aeruginosa; also recorded: C. albicans; also recorded: S. pneumoniae	–
PF-584: peptide having multiple activities (SYIKNLSNQKFLIAF; Peptide with targeting and/or antimicrobial activity)	MRSA (D)	C. jejuni (D)	S. epidermidis (C)	S. pneumoniae (D)	E. coli (C)	E. faecalis (D)	G B	–	S. epidermidis and M. luteus and P. mirabilis and C. albicans and MRSA and S. pneumoniae and E. faecalis and C. jeikeium	–
PF-586: peptide having multiple activities (FFNQANYFFKEF; Peptide with targeting and/or antimicrobial activity)	MRSA (D)	C. jejuni (D)	S. epidermidis (C)	S. pneumoniae (D)	E. coli (C)	E. faecalis (D)	G B	–	–	–
PF-592: peptide having multiple activities (IMKNYKYFKLFIVKYALF; Peptide with targeting and/or antimicrobial activity)	MRSA (D)	C. jejuni (S)	S. epidermidis (M)	S. pneumoniae (D)	E. coli (C)	E. faecalis (D)	G B	–	–	–
PF-595: peptide having multiple activities (LQNKIYELLYIKERSKLCS; Peptide with targeting and/or antimicrobial activity)	MRSA (D)	C. jejuni (D)	S. epidermidis (C)	S. pneumoniae (R)	E. coli (C)	E. faecalis (D)	G B	–	–	–
PF-596: peptide having multiple activities (SKMWDKILTILILILELIRELIKL; Peptide with targeting and/or antimicrobial activity)	MRSA (D)	C. jejuni (D)	S. epidermidis (D)	S. pneumoniae (D)	E. coli (C)	E. faecalis (D)	G B	–	–	–
PF-598: peptide having multiple activities (MKFMLEVRNKAISAYKEITRTQI; Peptide with targeting and/or antimicrobial activity)	MRSA (D)	C. jejuni (R)	S. epidermidis (R)	S. pneumoniae (R)	E. coli (C)	E. faecalis (R)	G B	–	–	S. epidermidis and M. luteus and P. mirabilis and P. aeruginosa and C. albicans and MRSA and S. pneumoniae and C. jeikeium
PF-607: peptide having multiple activities (YIESDPRKFDYIFGAIRDH; Peptide with targeting and/or antimicrobial activity)	MRSA (S)	C. jejuni (R)	S. epidermidis (M)	S. pneumoniae (R)	–	E. faecalis (A)	G B	–	–	S. epidermidis and P. mirabilis and E. coli and MRSA and S. pneumoniae and C. jeikeium
PF-610: peptide having multiple activities (VFLKLKTSKIDLASIIFYP; Peptide with targeting and/or antimicrobial activity)	MRSA (D)	C. jejuni (D)	S. epidermidis (C)	S. pneumoniae (D)	E. coli (C)	E. faecalis (D)	G B	–	–	–
PF-615: peptide having multiple activities (FLNRFIFYIFTVKTKSALIKNLFLD; Peptide with targeting and/or antimicrobial activity)	MRSA (D)	C. jejuni (D)	S. epidermidis (D)	S. pneumoniae (D)	E. coli (C)	E. faecalis (D)	G B	–	–	–
B1	MRSA (C)	C. jejuni (R)	S. epidermidis (R)	S. pneumoniae (D)	–	E. faecalis (R)	G B	–	S. epidermidis and C. albicans and MRSA and S. pneumoniae and E. faecalis and C. jeikeium	–
